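Protocol summary: plate cells (96-well), add compound at 5 concentrations, incubate 48 h, interpolate endpoints linearly. The concentration for full growth arrest is given as TGI.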
Tests used:
Assay in all cases: DTP human tumour cell line panel, 48 h
OVCAR-4 ovarian = system: OVCAR-4 ovarian
MALME-3M melanoma = system: MALME-3M melanoma
KM12 colon = system: KM12 colon
HT29 colon = system: HT29 colon
HCT-15 colon = system: HCT-15 colon
CAKI-1 renal = system: CAKI-1 renal
HCT-116 colon = system: HCT-116 colon
UACC-257 melanoma = system: UACC-257 melanoma
SF-295 CNS = system: SF-295 CNS
SF-268 CNS = system: SF-268 CNS
A549 NSCLC = system: A549 NSCLC
OVCAR-3 ovarian = system: OVCAR-3 ovarian
HCC-2998 colon = system: HCC-2998 colon
A498 renal = system: A498 renal
SN12C renal = system: SN12C renal
CCRF-CEM leukemia = system: CCRF-CEM leukemia
M19-MEL melanoma = system: M19-MEL melanoma
RPMI-8226 leukemia = system: RPMI-8226 leukemia
NCI-H226 lung = system: NCI-H226 lung
SK-MEL-28 melanoma = system: SK-MEL-28 melanoma
DMS 114 small cell lung = system: DMS 114 small cell lung
DMS 273 small cell lung = system: DMS 273 small cell lung
NCI-H460 lung = system: NCI-H460 lung
RXF 393 renal = system: RXF 393 renal
UO-31 renal = system: UO-31 renal
SW-620 colon = system: SW-620 colon
786-0 renal = system: 786-0 renal
ACHN renal = system: ACHN renal
SNB-78 CNS = system: SNB-78 CNS
M14 melanoma = system: M14 melanoma
UACC-62 melanoma = system: UACC-62 melanoma
DLD-1 colon = system: DLD-1 colon
SK-MEL-2 melanoma = system: SK-MEL-2 melanoma
OVCAR-8 ovarian = system: OVCAR-8 ovarian
SNB-19 CNS = system: SNB-19 CNS
MOLT-4 leukemia = system: MOLT-4 leukemia
SK-MEL-5 melanoma = system: SK-MEL-5 melanoma
KM20L2 colon = system: KM20L2 colon
LOX IMVI melanoma = system: LOX IMVI melanoma
HOP-18 NSCLC = system: HOP-18 NSCLC
XF 498 CNS = system: XF 498 CNS
SR leukemia = system: SR leukemia
HOP-92 NSCLC = system: HOP-92 NSCLC
K-562 leukemia = system: K-562 leukemia
TK-10 renal = system: TK-10 renal
NCI-H23 lung = system: NCI-H23 lung
OVCAR-5 ovarian = system: OVCAR-5 ovarian
HL-60(TB) leukemia = system: HL-60(TB) leukemia
IGROV1 ovarian = system: IGROV1 ovarian
SNB-75 CNS = system: SNB-75 CNS
SF-539 CNS = system: SF-539 CNS
HOP-62 NSCLC = system: HOP-62 NSCLC
LXFL 529 NSCLC = system: LXFL 529 NSCLC
EKVX NSCLC = system: EKVX NSCLC
T-47D breast = system: T-47D breast
HS 578T breast = system: HS 578T breast
MDA-N = system: MDA-N
PC-3 prostate = system: PC-3 prostate
RXF-631 renal = system: RXF-631 renal
NCI-H522 lung = system: NCI-H522 lung
BT-549 breast = system: BT-549 breast
SK-OV-3 ovarian = system: SK-OV-3 ovarian
MDA-MB-231 breast = system: MDA-MB-231 breast
U251 CNS = system: U251 CNS
DU-145 prostate = system: DU-145 prostate
MDA-MB-435 = system: MDA-MB-435
COLO 205 colon = system: COLO 205 colon

CC1=C(C(=O)NCc2ccccc2)C(/C=C/c2ccccc2)C(C(=O)NCc2ccccc2)=C(C)N1 was tested, and the TGI (OVCAR-4 ovarian) was over 100 µM, the TGI (MALME-3M melanoma) was over 100 µM and the TGI (KM12 colon) was over 100 µM. For the same compound, the TGI (HT29 colon) was over 100 µM, the TGI (HCT-15 colon) was over 100 µM and the TGI (CAKI-1 renal) was over 100 µM. The TGI (HCT-116 colon) was over 100 µM, the TGI (UACC-257 melanoma) was over 100 µM and the TGI (SF-295 CNS) was over 100 µM. For the same compound, the TGI (SF-268 CNS) was over 100 µM, the TGI (A549 NSCLC) was over 100 µM and the TGI (OVCAR-3 ovarian) was over 100 µM. The TGI (HCC-2998 colon) was over 100 µM, the TGI (A498 renal) was over 100 µM and the TGI (SN12C renal) was over 100 µM. It also gave a TGI (CCRF-CEM leukemia) of over 100 µM, a TGI (M19-MEL melanoma) of over 100 µM and a TGI (RPMI-8226 leukemia) of over 100 µM. It also gave a TGI (NCI-H226 lung) of over 100 µM, a TGI (SK-MEL-28 melanoma) of over 100 µM and a TGI (DMS 114 small cell lung) of over 100 µM. For the same compound, the TGI (DMS 273 small cell lung) was over 100 µM, the TGI (NCI-H460 lung) was over 100 µM and the TGI (RXF 393 renal) was over 100 µM. The TGI (UO-31 renal) was over 100 µM, the TGI (SW-620 colon) was over 100 µM and the TGI (786-0 renal) was over 100 µM. The TGI (ACHN renal) was over 100 µM, the TGI (SNB-78 CNS) was over 100 µM and the TGI (M14 melanoma) was over 100 µM. The TGI (UACC-62 melanoma) was over 100 µM, the TGI (DLD-1 colon) was over 100 µM and the TGI (SK-MEL-2 melanoma) was over 100 µM. For the same compound, the TGI (OVCAR-8 ovarian) was over 100 µM, the TGI (SNB-19 CNS) was over 100 µM and the TGI (MOLT-4 leukemia) was over 100 µM. It also gave a TGI (SK-MEL-5 melanoma) of over 100 µM, a TGI (KM20L2 colon) of over 100 µM and a TGI (LOX IMVI melanoma) of over 100 µM. The TGI (HOP-18 NSCLC) was over 100 µM, the TGI (XF 498 CNS) was over 100 µM and the TGI (SR leukemia) was over 100 µM. It also gave a TGI (HOP-92 NSCLC) of over 100 µM, a TGI (K-562 leukemia) of over 100 µM and a TGI (TK-10 renal) of over 100 µM. The TGI (NCI-H23 lung) was over 100 µM, the TGI (OVCAR-5 ovarian) was over 100 µM and the TGI (HL-60(TB) leukemia) was over 100 µM. It also gave a TGI (IGROV1 ovarian) of over 100 µM, a TGI (SNB-75 CNS) of over 100 µM and a TGI (SF-539 CNS) of over 100 µM. For the same compound, the TGI (HOP-62 NSCLC) was over 100 µM, the TGI (LXFL 529 NSCLC) was over 100 µM and the TGI (EKVX NSCLC) was over 100 µM.

In the case of CCCCC(=O)OCC(=O)[C@]1(O)Cc2c(O)c3c(c(O)c2[C@@H](OC2CC(NC(=O)C(F)(F)F)C(O)C(C)O2)C1)C(=O)c1c(OC)cccc1C3=O (stereo partly specified), the TGI (OVCAR-4 ovarian) is reported as 8.71 µM, the TGI (T-47D breast) is reported as 7.55 µM and the TGI (MALME-3M melanoma) is reported as 2.76 µM. For the same compound, the TGI (KM12 colon) was over 70.8 µM, the TGI (HT29 colon) was over 100 µM and the TGI (HCT-15 colon) was 6.9 µM. The TGI (CAKI-1 renal) was 2.63 µM, the TGI (HCT-116 colon) was 2.91 µM and the TGI (HS 578T breast) was 5.05 µM. For the same compound, the TGI (UACC-257 melanoma) was 8.08 µM, the TGI (SF-295 CNS) was 2.19 µM and the TGI (SF-268 CNS) was 4.99 µM. For the same compound, the TGI (A549 NSCLC) was 3.83 µM, the TGI (OVCAR-3 ovarian) was 20.1 µM and the TGI (HCC-2998 colon) was 3.81 µM. The TGI (A498 renal) was 0.948 µM, the TGI (SN12C renal) was 3.91 µM and the TGI (CCRF-CEM leukemia) was over 73.6 µM. It also gave a TGI (M19-MEL melanoma) of 1.9 µM, a TGI (RPMI-8226 leukemia) of 32.7 µM and a TGI (NCI-H226 lung) of 0.192 µM. The TGI (SK-MEL-28 melanoma) was 12.2 µM, the TGI (DMS 114 small cell lung) was 1.66 µM and the TGI (DMS 273 small cell lung) was 3.39 µM. For the same compound, the TGI (NCI-H460 lung) was 2.48 µM, the TGI (RXF 393 renal) was 2.62 µM and the TGI (UO-31 renal) was 3.45 µM. It also gave a TGI (SW-620 colon) of over 52.4 µM, a TGI (786-0 renal) of 1.35 µM and a TGI (MDA-N) of 5.02 µM. The TGI (ACHN renal) was 3.04 µM, the TGI (PC-3 prostate) was 16.9 µM and the TGI (M14 melanoma) was 8.62 µM. For the same compound, the TGI (RXF-631 renal) was 6.44 µM, the TGI (UACC-62 melanoma) was 1.04 µM and the TGI (DLD-1 colon) was 13.2 µM. The TGI (SK-MEL-2 melanoma) was 6.01 µM, the TGI (OVCAR-8 ovarian) was over 39.6 µM and the TGI (SNB-19 CNS) was 3.02 µM. It also gave a TGI (SK-MEL-5 melanoma) of 1.64 µM, a TGI (KM20L2 colon) of over 100 µM and a TGI (NCI-H522 lung) of 3.9 µM. The TGI (LOX IMVI melanoma) was 1.37 µM, the TGI (BT-549 breast) was 9.7 µM and the TGI (XF 498 CNS) was 0.97 µM. For the same compound, the TGI (SK-OV-3 ovarian) was 1.73 µM, the TGI (MDA-MB-231 breast) was over 100 µM and the TGI (HOP-92 NSCLC) was 3.88 µM. The TGI (K-562 leukemia) was over 21.9 µM, the TGI (U251 CNS) was 2.81 µM and the TGI (TK-10 renal) was 15.1 µM. The TGI (NCI-H23 lung) was 1.98 µM, the TGI (OVCAR-5 ovarian) was 7.49 µM and the TGI (HL-60(TB) leukemia) was 6.41 µM. For the same compound, the TGI (DU-145 prostate) was 2.44 µM, the TGI (IGROV1 ovarian) was 17 µM and the TGI (SNB-75 CNS) was 4.37 µM. It also gave a TGI (MDA-MB-435) of over 100 µM, a TGI (SF-539 CNS) of 2.98 µM and a TGI (COLO 205 colon) of 3.69 µM. The TGI (HOP-62 NSCLC) was 0.988 µM, the TGI (LXFL 529 NSCLC) was over 32.7 µM and the TGI (EKVX NSCLC) was 13.5 µM.

With CC1(c2ccc(F)cc2)C(C#N)C(=O)NC(=O)C1C#N (stereo unspecified) the TGI (OVCAR-4 ovarian) was over 100 µM, the TGI (MALME-3M melanoma) was over 100 µM and the TGI (KM12 colon) was over 100 µM. It also gave a TGI (HT29 colon) of over 100 µM, a TGI (HCT-15 colon) of over 100 µM and a TGI (CAKI-1 renal) of over 100 µM. It also gave a TGI (UACC-257 melanoma) of over 100 µM, a TGI (SF-295 CNS) of over 100 µM and a TGI (SF-268 CNS) of over 100 µM. For the same compound, the TGI (A549 NSCLC) was over 100 µM, the TGI (OVCAR-3 ovarian) was over 100 µM and the TGI (HCC-2998 colon) was over 100 µM. For the same compound, the TGI (A498 renal) was over 100 µM, the TGI (SN12C renal) was over 100 µM and the TGI (CCRF-CEM leukemia) was over 100 µM. It also gave a TGI (M19-MEL melanoma) of over 100 µM, a TGI (RPMI-8226 leukemia) of over 100 µM and a TGI (NCI-H226 lung) of over 100 µM. It also gave a TGI (SK-MEL-28 melanoma) of over 100 µM, a TGI (DMS 114 small cell lung) of over 100 µM and a TGI (DMS 273 small cell lung) of over 100 µM. For the same compound, the TGI (NCI-H460 lung) was over 100 µM, the TGI (RXF 393 renal) was over 100 µM and the TGI (UO-31 renal) was over 100 µM. For the same compound, the TGI (SW-620 colon) was over 100 µM, the TGI (786-0 renal) was over 100 µM and the TGI (ACHN renal) was over 100 µM. It also gave a TGI (M14 melanoma) of over 100 µM, a TGI (RXF-631 renal) of over 100 µM and a TGI (UACC-62 melanoma) of over 100 µM. For the same compound, the TGI (DLD-1 colon) was over 100 µM, the TGI (SK-MEL-2 melanoma) was over 100 µM and the TGI (OVCAR-8 ovarian) was over 100 µM. For the same compound, the TGI (SNB-19 CNS) was over 100 µM, the TGI (MOLT-4 leukemia) was over 100 µM and the TGI (SK-MEL-5 melanoma) was over 100 µM. It also gave a TGI (KM20L2 colon) of over 100 µM, a TGI (NCI-H522 lung) of over 100 µM and a TGI (LOX IMVI melanoma) of over 100 µM. The TGI (XF 498 CNS) was over 100 µM, the TGI (SK-OV-3 ovarian) was over 100 µM and the TGI (HOP-92 NSCLC) was over 100 µM. The TGI (K-562 leukemia) was over 100 µM, the TGI (TK-10 renal) was over 100 µM and the TGI (NCI-H23 lung) was over 100 µM. For the same compound, the TGI (OVCAR-5 ovarian) was over 100 µM, the TGI (HL-60(TB) leukemia) was over 100 µM and the TGI (IGROV1 ovarian) was over 100 µM. It also gave a TGI (SNB-75 CNS) of over 100 µM, a TGI (SF-539 CNS) of over 100 µM and a TGI (COLO 205 colon) of over 100 µM. It also gave a TGI (HOP-62 NSCLC) of over 100 µM, a TGI (LXFL 529 NSCLC) of over 100 µM and a TGI (EKVX NSCLC) of over 100 µM.
